Laboratory results taken from PubChem BioAssay (NCI).
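Results reflect a 48-hour exposure of cells in 96-well plates to compound at five concentrations. The concentration for full growth arrest is given as TGI.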

Key:
Test in all cases: growth of human tumour cells (NCI), 48 h
CAKI-1 renal = system: CAKI-1 renal
COLO 205 colon = system: COLO 205 colon
HCT-116 colon = system: HCT-116 colon
K-562 leukemia = system: K-562 leukemia
MDA-MB-435 = system: MDA-MB-435
OVCAR-5 ovarian = system: OVCAR-5 ovarian
SK-MEL-28 melanoma = system: SK-MEL-28 melanoma
SK-OV-3 ovarian = system: SK-OV-3 ovarian
SN12C renal = system: SN12C renal
UO-31 renal = system: UO-31 renal
A498 renal = system: A498 renal

Measured: TGI

O=c1[nH]c2nc3ccccc3c(=O)n2/c1=C/c1cccs1
not listed: A498 renal
> 100 µM: all other assays above

CC(NC(=O)c1c(O)[nH]c(=S)[nH]c1=O)c1ccc([N+](=O)[O-])cc1 (configuration not stated)
not listed: A498 renal
> 100 µM: all other assays above

C(=Nc1ccc2c(c1)Cc1ccccc1-2)c1ccccn1
90.3 µM: SN12C renal
not listed: COLO 205 colon | SK-OV-3 ovarian
> 100 µM: all other assays above

CN1CCc2c(sc3[nH]c(=S)[nH]c(=S)c23)C1
not listed: UO-31 renal | A498 renal
> 100 µM: all other assays above

COCn1cnc2c(=O)nc(SC)n(-c3ccccc3)c21
not listed: SK-MEL-28 melanoma
> 100 µM: all other assays above

COc1ccc(C2(CC(C)C)CCN(S(=O)(=O)c3ccc(C)cc3)C2)cc1OC (configuration not stated)
92.6 µM: HCT-116 colon
76.5 µM: K-562 leukemia
not listed: A498 renal
> 100 µM: all other assays above

COC(=O)N[C@H](C(=O)NC(OCc1ccccc1)C1COC(C)(C)O1)C(C)O[Si](C)(C)C(C)(C)C (some centres not stated)
not listed: MDA-MB-435 | SN12C renal
> 100 µM: all other assays above

CC(=O)OCCOCNC(=S)N/N=C/c1ccc([N+](=O)[O-])s1
4.61 µM: COLO 205 colon
54 µM: HCT-116 colon
not listed: CAKI-1 renal | MDA-MB-435
> 100 µM: all other assays above

CC(=O)O[C@]12CCCCCC1C1(O)C(O)CCCCC12 (some centres not stated)
> 100 µM: COLO 205 colon | K-562 leukemia | SK-MEL-28 melanoma | SK-OV-3 ovarian | SN12C renal | UO-31 renal

CC1CC(Nc2ccc(Br)cc2)N(C(=O)c2ccc(Br)cc2)O1 (configuration not stated)
not listed: A498 renal
> 10 µM: all other assays above

NC1(CCNC(=O)c2ccccc2)CCN(C(=O)c2ccccc2)CC1
not listed: SK-MEL-28 melanoma | A498 renal
> 100 µM: all other assays above

Nc1c(S(=O)(=O)c2ccccc2)c2nc3ccccc3nc2n2c1nc1ccccc12
> 87.2 µM: SN12C renal
> 62.3 µM: SK-MEL-28 melanoma
not listed: MDA-MB-435
> 100 µM: all other assays above

COCCn1cnc2c(Cl)nc(Nc3ccccc3)nc21
95.4 µM: SN12C renal
40.7 µM: MDA-MB-435
not listed: CAKI-1 renal | UO-31 renal
> 100 µM: all other assays above

COC(=O)[C@@H](NC(=O)N(Cc1ccccc1)C[C@H](CC(C)C)NC(=O)[C@@H](NC(=O)OC(C)(C)C)C(C)C)C(C)C
not listed: SN12C renal
> 100 µM: all other assays above

Cc1cc(C)nc(NC(P(=O)(O)O)P(=O)(O)O)n1
> 100 µM: CAKI-1 renal | COLO 205 colon | HCT-116 colon | OVCAR-5 ovarian | SK-OV-3 ovarian | UO-31 renal

C[n+]1c2ccccc2c(NC(CCCN=C(N)N)C(=O)O)c2ccccc21 (configuration not stated)
not listed: MDA-MB-435 | SK-MEL-28 melanoma
> 100 µM: all other assays above

O=c1cc(NNc2cccc(Cl)c2)[nH]c(=O)[nH]1
36.9 µM: CAKI-1 renal
31.9 µM: HCT-116 colon
not listed: MDA-MB-435 | SN12C renal
> 100 µM: all other assays above

C=C1CC[C@H]2C(=O)OC(c3ccoc3)C[C@]2(C)C/C=C\C=C/1C(=O)OC (some centres not stated)
not listed: MDA-MB-435
> 25 µM: all other assays above

Cc1ccc(C(=O)NCc2ccccc2)cc1N=NN(C)C
not listed: A498 renal
> 100 µM: all other assays above

CCCCCCc1cc2cc(C(=O)Nc3ccc(F)cc3)c(=N)oc2cc1O
10.1 µM: MDA-MB-435
43.5 µM: SK-MEL-28 melanoma
8.09 µM: SK-OV-3 ovarian
18.4 µM: UO-31 renal
11.1 µM: HCT-116 colon
> 100 µM: A498 renal | COLO 205 colon | OVCAR-5 ovarian
13.6 µM: CAKI-1 renal
12.3 µM: K-562 leukemia

O=c1cc(CF)[nH]c(=S)[nH]1
not listed: COLO 205 colon | SK-OV-3 ovarian
> 100 µM: all other assays above

O=Cc1ccc(-c2ccc(-c3ccc(CO)s3)o2)s1
78.8 µM: SK-OV-3 ovarian
> 71.3 µM: UO-31 renal
> 22.2 µM: K-562 leukemia
0.353 µM: A498 renal
> 80.1 µM: SK-MEL-28 melanoma
> 49.3 µM: MDA-MB-435
> 85.7 µM: COLO 205 colon
> 40.1 µM: HCT-116 colon
> 88.8 µM: SN12C renal
